Measured values reported in ChEMBL document CHEMBL4507290 (2021).

Key:
[1] = biological target: Ribosomal protein S6 kinase alpha-4 (Homo sapiens) (UniProt O75676); conditions: Compound concentration 1000.0 nM
[2] = biological target: Phosphatidylinositol 4,5-bisphosphate 3-kinase catalytic subunit alpha isoform (Homo sapiens) (UniProt P42336); conditions: Compound concentration 1000.0 nM
[3] = biological target: Tyrosine-protein kinase ABL1 (Homo sapiens) (UniProt P00519); conditions: Compound concentration 1000.0 nM
[4] = biological target: Serine/threonine-protein kinase 36 (Homo sapiens) (UniProt Q9NRP7); conditions: Compound concentration 1000.0 nM
Sequence of Serine/threonine-protein kinase 36 (Homo sapiens) (Q9NRP7 whole entry): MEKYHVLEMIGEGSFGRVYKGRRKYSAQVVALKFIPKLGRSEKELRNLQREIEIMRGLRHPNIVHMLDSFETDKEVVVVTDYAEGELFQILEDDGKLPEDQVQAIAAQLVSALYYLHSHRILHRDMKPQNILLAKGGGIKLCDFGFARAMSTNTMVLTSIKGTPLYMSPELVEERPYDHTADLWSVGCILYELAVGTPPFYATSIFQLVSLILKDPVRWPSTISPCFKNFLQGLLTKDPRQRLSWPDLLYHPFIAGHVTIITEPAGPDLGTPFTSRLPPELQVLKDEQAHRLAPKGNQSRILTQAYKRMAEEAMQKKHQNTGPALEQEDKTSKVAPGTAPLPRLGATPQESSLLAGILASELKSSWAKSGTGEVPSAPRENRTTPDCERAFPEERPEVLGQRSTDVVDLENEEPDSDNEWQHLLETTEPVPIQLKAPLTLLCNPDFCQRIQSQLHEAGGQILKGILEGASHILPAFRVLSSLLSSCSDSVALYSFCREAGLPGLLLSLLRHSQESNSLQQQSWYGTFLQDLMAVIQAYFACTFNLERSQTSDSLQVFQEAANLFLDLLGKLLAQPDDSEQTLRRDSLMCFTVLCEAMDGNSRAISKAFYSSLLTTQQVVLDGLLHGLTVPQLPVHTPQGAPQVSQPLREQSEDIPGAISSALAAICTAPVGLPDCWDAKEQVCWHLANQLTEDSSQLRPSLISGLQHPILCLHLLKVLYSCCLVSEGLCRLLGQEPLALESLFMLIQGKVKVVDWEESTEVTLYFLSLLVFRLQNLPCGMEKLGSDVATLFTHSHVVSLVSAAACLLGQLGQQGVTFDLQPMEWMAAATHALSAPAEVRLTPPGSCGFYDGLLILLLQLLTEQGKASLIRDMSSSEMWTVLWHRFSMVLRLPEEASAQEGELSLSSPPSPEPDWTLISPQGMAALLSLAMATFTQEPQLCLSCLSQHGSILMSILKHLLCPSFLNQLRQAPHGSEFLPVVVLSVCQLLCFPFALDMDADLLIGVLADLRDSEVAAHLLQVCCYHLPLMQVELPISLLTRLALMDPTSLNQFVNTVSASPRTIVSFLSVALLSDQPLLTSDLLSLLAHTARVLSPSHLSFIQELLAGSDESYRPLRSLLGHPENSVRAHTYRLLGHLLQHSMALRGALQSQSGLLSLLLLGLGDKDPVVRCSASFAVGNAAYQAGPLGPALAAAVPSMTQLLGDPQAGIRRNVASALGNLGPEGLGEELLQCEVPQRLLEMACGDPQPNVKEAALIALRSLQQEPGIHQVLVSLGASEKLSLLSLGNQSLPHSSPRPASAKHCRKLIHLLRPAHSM

[5] = biological target: Protein kinase C theta type (Homo sapiens) (UniProt Q04759); conditions: Compound concentration 1000.0 nM
[6] = biological target: Dual serine/threonine and tyrosine protein kinase (Homo sapiens) (UniProt Q6XUX3); conditions: Compound concentration 1000.0 nM
[7] = biological target: Calcium/calmodulin-dependent protein kinase type 1B (Homo sapiens) (UniProt Q6P2M8); conditions: Compound concentration 1000.0 nM
[8] = biological target: Proto-oncogene tyrosine-protein kinase Src (Homo sapiens) (UniProt P12931); conditions: Compound concentration 1000.0 nM
[9] = tested on: Epidermal growth factor receptor (Homo sapiens), P00533 [G719S]; conditions: Compound concentration 1000.0 nM
[10] = biological target: Citron Rho-interacting kinase (Homo sapiens) (UniProt O14578); conditions: Compound concentration 1000.0 nM
[11] = tested on: ALK tyrosine kinase receptor (Homo sapiens), Q9UM73 [L1196M]; conditions: Compound concentration 1000.0 nM
[12] = biological target: Serine/threonine-protein kinase WNK1 (Homo sapiens) (UniProt Q9H4A3); conditions: Compound concentration 1000.0 nM
[13] = biological target: Serine/threonine-protein kinase haspin (Homo sapiens) (UniProt Q8TF76); conditions: Compound concentration 1000.0 nM
Sequence of Serine/threonine-protein kinase haspin (Homo sapiens) (Q8TF76 whole entry): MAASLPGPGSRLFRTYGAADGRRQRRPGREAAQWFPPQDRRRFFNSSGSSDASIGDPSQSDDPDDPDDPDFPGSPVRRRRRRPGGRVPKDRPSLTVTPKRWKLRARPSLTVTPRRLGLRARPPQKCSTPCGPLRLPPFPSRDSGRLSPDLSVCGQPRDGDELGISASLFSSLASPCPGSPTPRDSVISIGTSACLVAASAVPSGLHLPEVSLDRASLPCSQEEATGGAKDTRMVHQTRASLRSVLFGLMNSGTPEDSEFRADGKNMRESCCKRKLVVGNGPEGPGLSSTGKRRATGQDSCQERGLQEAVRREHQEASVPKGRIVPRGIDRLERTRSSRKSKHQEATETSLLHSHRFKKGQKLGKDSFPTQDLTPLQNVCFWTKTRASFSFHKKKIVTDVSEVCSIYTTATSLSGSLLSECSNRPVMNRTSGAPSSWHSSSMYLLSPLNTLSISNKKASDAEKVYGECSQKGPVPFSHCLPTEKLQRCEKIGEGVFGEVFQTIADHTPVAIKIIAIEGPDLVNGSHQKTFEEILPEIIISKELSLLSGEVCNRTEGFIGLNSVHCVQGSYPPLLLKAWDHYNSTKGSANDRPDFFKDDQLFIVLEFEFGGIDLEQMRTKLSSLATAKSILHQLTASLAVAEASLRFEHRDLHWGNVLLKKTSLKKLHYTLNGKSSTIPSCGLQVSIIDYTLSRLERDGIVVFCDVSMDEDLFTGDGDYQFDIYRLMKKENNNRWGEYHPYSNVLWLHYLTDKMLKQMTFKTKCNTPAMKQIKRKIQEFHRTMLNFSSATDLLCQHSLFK

[14] = biological target: Serine/threonine-protein kinase Nek4 (Homo sapiens) (UniProt P51957); conditions: Compound concentration 1000.0 nM
[15] = biological target: Serine/threonine-protein kinase VRK2 (Homo sapiens) (UniProt Q86Y07); conditions: Compound concentration 1000.0 nM
[16] = biological target: Activin receptor type-2A (Homo sapiens) (UniProt P27037); conditions: Compound concentration 1000.0 nM
[17] = biological target: Interleukin-1 receptor-associated kinase 4 (Homo sapiens) (UniProt Q9NWZ3); conditions: Compound concentration 1000.0 nM
[18] = biological target: Serine/threonine-protein kinase PAK 2 (Homo sapiens) (UniProt Q13177); conditions: Compound concentration 1000.0 nM
[19] = biological target: Tyrosine-protein kinase Mer (Homo sapiens) (UniProt Q12866); conditions: Compound concentration 1000.0 nM
[20] = biological target: 5-hydroxytryptamine receptor 5A (Homo sapiens) (UniProt P47898); conditions: Compound concentration 10.0 uM
[21] = biological target: MAP/microtubule affinity-regulating kinase 4 (Homo sapiens) (UniProt Q96L34); conditions: Compound concentration 1000.0 nM
Sequence of MAP/microtubule affinity-regulating kinase 4 (Homo sapiens) (Q96L34 whole entry): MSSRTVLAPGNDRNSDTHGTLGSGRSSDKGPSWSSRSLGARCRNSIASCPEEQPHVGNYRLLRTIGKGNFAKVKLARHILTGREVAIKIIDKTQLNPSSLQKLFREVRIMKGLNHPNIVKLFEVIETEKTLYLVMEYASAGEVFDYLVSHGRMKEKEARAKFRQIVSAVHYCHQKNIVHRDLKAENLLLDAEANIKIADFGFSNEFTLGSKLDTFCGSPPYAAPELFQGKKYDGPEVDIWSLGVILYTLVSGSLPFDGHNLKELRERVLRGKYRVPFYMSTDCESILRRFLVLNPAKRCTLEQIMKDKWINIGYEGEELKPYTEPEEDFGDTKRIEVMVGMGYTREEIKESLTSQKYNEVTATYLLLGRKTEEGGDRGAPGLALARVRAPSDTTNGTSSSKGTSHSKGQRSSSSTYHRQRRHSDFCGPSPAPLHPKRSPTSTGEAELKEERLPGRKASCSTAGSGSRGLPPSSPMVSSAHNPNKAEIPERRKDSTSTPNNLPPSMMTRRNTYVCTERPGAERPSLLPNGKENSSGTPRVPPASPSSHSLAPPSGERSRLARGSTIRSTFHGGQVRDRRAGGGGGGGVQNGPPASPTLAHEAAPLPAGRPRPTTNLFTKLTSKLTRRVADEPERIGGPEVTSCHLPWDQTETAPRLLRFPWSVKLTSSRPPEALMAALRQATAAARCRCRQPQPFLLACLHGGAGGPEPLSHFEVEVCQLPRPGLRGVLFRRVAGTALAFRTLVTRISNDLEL

[22] = biological target: TGF-beta receptor type-1 (Homo sapiens) (UniProt P36897); conditions: Compound concentration 1000.0 nM
[23] = tested on: Epidermal growth factor receptor (Homo sapiens), P00533 [UNDEFINED MUTATION]; conditions: Compound concentration 1000.0 nM
[24] = biological target: Serine/threonine-protein kinase MAK (Homo sapiens) (UniProt P20794); conditions: Compound concentration 1000.0 nM
[25] = biological target: Vascular endothelial growth factor receptor 2 (Homo sapiens) (UniProt P35968); conditions: Compound concentration 1000.0 nM
[26] = biological target: Wee1-like protein kinase (Homo sapiens) (UniProt P30291); conditions: Compound concentration 1000.0 nM
[27] = biological target: Tyrosine-protein kinase JAK1 (Homo sapiens) (UniProt P23458); conditions: Compound concentration 1000.0 nM
[28] = biological target: Tyrosine-protein kinase CSK (Homo sapiens) (UniProt P41240); conditions: Compound concentration 1000.0 nM
[29] = biological target: Discoidin domain-containing receptor 2 (Homo sapiens) (UniProt Q16832); conditions: Compound concentration 1000.0 nM
Sequence of Discoidin domain-containing receptor 2 (Homo sapiens) (Q16832 whole entry, the tested form may be a part): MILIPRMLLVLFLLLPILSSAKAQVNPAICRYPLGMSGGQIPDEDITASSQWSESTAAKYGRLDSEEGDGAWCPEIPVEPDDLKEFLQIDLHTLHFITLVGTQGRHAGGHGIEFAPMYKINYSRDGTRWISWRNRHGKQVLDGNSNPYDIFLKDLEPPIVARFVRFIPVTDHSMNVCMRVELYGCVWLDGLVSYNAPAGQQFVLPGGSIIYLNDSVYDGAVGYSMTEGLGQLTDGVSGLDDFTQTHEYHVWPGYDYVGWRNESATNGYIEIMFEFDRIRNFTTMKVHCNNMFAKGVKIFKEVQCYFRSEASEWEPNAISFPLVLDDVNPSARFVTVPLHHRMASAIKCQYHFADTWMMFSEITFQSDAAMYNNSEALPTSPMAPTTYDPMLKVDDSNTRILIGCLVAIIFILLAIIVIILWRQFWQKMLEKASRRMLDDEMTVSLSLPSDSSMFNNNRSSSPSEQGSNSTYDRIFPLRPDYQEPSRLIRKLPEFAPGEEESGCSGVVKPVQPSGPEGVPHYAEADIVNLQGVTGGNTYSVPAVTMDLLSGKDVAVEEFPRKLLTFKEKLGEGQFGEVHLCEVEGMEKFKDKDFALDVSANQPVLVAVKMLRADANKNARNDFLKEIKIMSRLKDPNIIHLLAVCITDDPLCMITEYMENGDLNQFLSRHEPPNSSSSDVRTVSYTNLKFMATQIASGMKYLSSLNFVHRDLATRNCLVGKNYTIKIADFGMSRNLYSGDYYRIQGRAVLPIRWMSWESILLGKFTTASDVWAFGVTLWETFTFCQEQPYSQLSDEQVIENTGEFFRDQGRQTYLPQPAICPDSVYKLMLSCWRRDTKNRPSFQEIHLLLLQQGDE

[30] = biological target: Receptor-type tyrosine-protein kinase FLT3 (Homo sapiens) (UniProt P36888); conditions: Compound concentration 1000.0 nM
[31] = biological target: Fibroblast growth factor receptor 3 (Homo sapiens) (UniProt P22607); conditions: Compound concentration 1000.0 nM
Sequence of Fibroblast growth factor receptor 3 (Homo sapiens) (P22607 23-806 limits assumed): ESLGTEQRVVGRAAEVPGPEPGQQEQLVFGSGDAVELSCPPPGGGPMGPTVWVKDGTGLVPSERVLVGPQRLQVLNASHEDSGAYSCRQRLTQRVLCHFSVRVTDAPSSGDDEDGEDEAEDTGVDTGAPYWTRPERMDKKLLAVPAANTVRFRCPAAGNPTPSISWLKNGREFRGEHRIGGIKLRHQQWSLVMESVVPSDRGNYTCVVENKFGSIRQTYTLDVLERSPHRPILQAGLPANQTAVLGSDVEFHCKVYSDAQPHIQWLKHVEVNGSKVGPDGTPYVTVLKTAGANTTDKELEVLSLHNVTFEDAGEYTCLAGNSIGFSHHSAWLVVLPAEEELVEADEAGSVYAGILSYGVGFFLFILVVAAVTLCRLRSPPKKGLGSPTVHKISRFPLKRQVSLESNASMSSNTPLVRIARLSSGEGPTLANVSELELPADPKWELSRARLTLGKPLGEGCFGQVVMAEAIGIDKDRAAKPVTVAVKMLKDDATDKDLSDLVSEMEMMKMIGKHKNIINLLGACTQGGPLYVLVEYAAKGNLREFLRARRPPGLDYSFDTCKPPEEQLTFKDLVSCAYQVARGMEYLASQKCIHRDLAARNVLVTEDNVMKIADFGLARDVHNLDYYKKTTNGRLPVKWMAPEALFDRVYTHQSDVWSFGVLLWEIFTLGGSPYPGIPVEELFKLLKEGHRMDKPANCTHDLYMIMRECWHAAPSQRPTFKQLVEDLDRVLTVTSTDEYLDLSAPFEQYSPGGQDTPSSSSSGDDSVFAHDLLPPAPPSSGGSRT

[32] = biological target: Tyrosine-protein kinase Fes/Fps (Homo sapiens) (UniProt P07332); conditions: Compound concentration 1000.0 nM
[33] = biological target: Protein kinase C iota type (Homo sapiens) (UniProt P41743); conditions: Compound concentration 1000.0 nM
[34] = biological target: Serine/threonine-protein kinase N2 (Homo sapiens) (UniProt Q16513); conditions: Compound concentration 1000.0 nM
[35] = biological target: Dual specificity mitogen-activated protein kinase kinase 6 (Homo sapiens) (UniProt P52564); conditions: Compound concentration 1000.0 nM
[36] = biological target: Casein kinase I isoform gamma-1 (Homo sapiens) (UniProt Q9HCP0); conditions: Compound concentration 1000.0 nM
[37] = biological target: Ephrin type-B receptor 4 (Homo sapiens) (UniProt P54760); conditions: Compound concentration 1000.0 nM
[38] = biological target: Glycogen synthase kinase-3 beta (Homo sapiens) (UniProt P49841); conditions: Compound concentration 1000.0 nM
[39] = tested on: Fibroblast growth factor receptor 3 (Homo sapiens), P22607 [G697C]; conditions: Compound concentration 1000.0 nM
[40] = biological target: Mitogen-activated protein kinase kinase kinase kinase 2 (Homo sapiens) (UniProt Q12851); conditions: Compound concentration 1000.0 nM
[41] = biological target: Ankyrin repeat and protein kinase domain-containing protein 1 (Homo sapiens) (UniProt Q8NFD2); conditions: Compound concentration 1000.0 nM
[42] = biological target: Mitogen-activated protein kinase 14 (Homo sapiens) (UniProt Q16539); conditions: Compound concentration 1000.0 nM
Sequence of Mitogen-activated protein kinase 14 (Homo sapiens) (Q16539 whole entry): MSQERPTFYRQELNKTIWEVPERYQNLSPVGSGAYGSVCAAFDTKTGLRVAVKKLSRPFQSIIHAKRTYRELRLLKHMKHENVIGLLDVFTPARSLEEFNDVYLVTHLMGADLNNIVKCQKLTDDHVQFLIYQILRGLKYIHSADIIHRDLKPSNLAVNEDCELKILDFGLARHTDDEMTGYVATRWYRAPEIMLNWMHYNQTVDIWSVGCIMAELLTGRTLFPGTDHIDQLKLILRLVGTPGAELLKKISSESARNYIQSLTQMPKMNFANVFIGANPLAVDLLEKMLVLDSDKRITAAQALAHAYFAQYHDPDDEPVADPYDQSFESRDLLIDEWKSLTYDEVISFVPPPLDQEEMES

[43] = biological target: Tyrosine-protein kinase Lyn (Homo sapiens) (UniProt P07948); conditions: Compound concentration 1000.0 nM
[44] = biological target: Insulin receptor-related protein (Homo sapiens) (UniProt P14616); conditions: Compound concentration 1000.0 nM
[45] = biological target: Homeodomain-interacting protein kinase 2 (Homo sapiens) (UniProt Q9H2X6); conditions: Compound concentration 1000.0 nM
[46] = biological target: Ephrin type-B receptor 3 (Homo sapiens) (UniProt P54753); conditions: Compound concentration 1000.0 nM

CN([C@@H]1CCc2c(CC(=O)O)c3ccccc3n2C1)S(=O)(=O)c1ccc(F)cc1 [MK-7246]
inactive: residual activity [1] 100% | residual activity [2] 100% | residual activity [3] 100% | residual activity [4] 100% | residual activity [5] 83% | residual activity [6] 82% | residual activity [7] 87% | residual activity [8] 100% | residual activity [9] 100% | residual activity [10] 100% | residual activity [11] 74% | residual activity [12] 96% | residual activity [13] 100% | residual activity [14] 100% | residual activity [15] 100% | residual activity [16] 100% | residual activity [17] 93% | residual activity [18] 100% | residual activity [19] 100% | inhibition [20] -1.36% | residual activity [21] 100% | residual activity [22] 100% | residual activity [23] 95% | residual activity [24] 82% | residual activity [25] 82% | residual activity [26] 100% | residual activity [27] 100% | residual activity [28] 100% | residual activity [29] 98% | residual activity [30] 100% | residual activity [31] 100% | residual activity [32] 79% | residual activity [33] 100% | residual activity [34] 100% | residual activity [35] 100% | residual activity [36] 100% | residual activity [37] 95% | residual activity [38] 93% | residual activity [39] 100% | residual activity [40] 87% | residual activity [41] 100% | residual activity [42] 100% | residual activity [43] 100% | residual activity [44] 100% | residual activity [45] 100% | residual activity [46] 88%

CN([C@@H]1CCc2c(CC(=O)O)c3cc(S(C)(=O)=O)ccc3n2C1)S(=O)(=O)c1ccc(F)cc1
inactive: residual activity [1] 100% | residual activity [2] 100% | residual activity [3] 95% | residual activity [4] 98% | residual activity [5] 78% | residual activity [6] 77% | residual activity [7] 90% | residual activity [8] 96% | residual activity [9] 100% | residual activity [10] 96% | residual activity [11] 89% | residual activity [12] 95% | residual activity [13] 83% | residual activity [14] 91% | residual activity [15] 94% | residual activity [16] 100% | residual activity [17] 95% | residual activity [18] 100% | residual activity [19] 100% | inhibition [20] -1.56% | residual activity [21] 100% | residual activity [22] 100% | residual activity [23] 80% | residual activity [24] 65% | residual activity [25] 85% | residual activity [26] 100% | residual activity [27] 100% | residual activity [28] 99% | residual activity [29] 88% | residual activity [30] 100% | residual activity [31] 100% | residual activity [32] 92% | residual activity [33] 100% | residual activity [34] 100% | residual activity [35] 100% | residual activity [36] 91% | residual activity [37] 95% | residual activity [38] 85% | residual activity [39] 90% | residual activity [40] 90% | residual activity [41] 96% | residual activity [42] 100% | residual activity [43] 100% | residual activity [44] 100% | residual activity [45] 100% | residual activity [46] 90%
